{
  "source": "patent US20060014704A1",
  "about": "“Compounds and their preparation for the treatment of Alzheimer's disease by inhibiting beta-amyloid peptide production” (priority 2004, published 2006)",
  "key": {"[1]": {"molecular_target": "T1, γ-secretase cleavage of APP (AICD) (Homo sapiens, UniProt P49768)", "T1 construct": "Membrane fractions isolated from 293 cells overexpressing either APP (A), Notch-AE (B) or p75-AE (C); endogenous in cells; host or cells: 293 cells (membrane fractions); only the substrates APP, Notch-ΔE and p75-ΔE are overexpressed", "experiment": "Cell-free generation of AICD from membrane fractions of 293 cells overexpressing APP", "format": "biochemical", "description": "(§1) Membrane fractions isolated from 293 cells overexpressing either APP (A), Notch-AE (B) or p75-AE (C) and incubated in the presence of indicated compounds: Compound E (CpdE, general γ-secretase inhibitor), Rgk351, Rk1 and sulindac sulfide (SS)."}, "[2]": {"molecular_target": "T2, γ-secretase cleavage of Notch1 (NICD) (Homo sapiens, UniProt P49768)", "T2 construct": "Membrane fractions isolated from 293 cells overexpressing either APP (A), Notch-AE (B) or p75-AE (C); endogenous in cells; host or cells: 293 cells (membrane fractions); only the substrates APP, Notch-ΔE and p75-ΔE are overexpressed", "experiment": "Cell-free generation of NICD from membrane fractions of 293 cells overexpressing Notch-AE", "format": "biochemical", "description": "as §1"}, "γ-secretase": {"molecular_target": "γ-secretase (Homo sapiens, UniProt P49768)", "experiment": "Cell-free γ-secretase assay (CHAPSO-solubilized membrane fractions, recombinant substrates, Aβ ELISA)", "format": "biochemical", "conditions": "cell-free γ-secretase assay, FIG. 15 (100 μM in A)", "description": "(A) CHAPSO-solubilized membrane fractions were incubated with recombinant γ-secretase substrates together with the indicated compounds (at 100 μM) and the levels of Aβ42 and Aβ40 were determined by ELISA as described (27-29). (B) Dose-response of Aβ40 and Aβ42-lowering activity of Rk1 and (20S)Rg3 in a cell-free γ-secretase assay.\nNext, the inhibitory effects of Rk1 and (20S)Rg3 on Aβ generation in an in vitro γ-secretase assay was studied. […] In contrast, naproxen, an NSAID without Aβ42-lowering activity, had no effects on Aβ42 production (FIG. 15A)."}, "[3]": {"test_system": "Aβ40 and Aβ42 production, CHO cells stably transfected with human APP695", "experiment": "Secreted Aβ40/Aβ42 ELISA in CHO cells expressing human APP (CHO-APP cells)", "format": "cell-based, Chinese hamster", "design": "key to Aβ42-lowering activity: Aβ42-lowering activity (“Yes”); no profound effects (“No”); non-determined (“ND”); Ginsenosides that affected cell viability are indicated as “Cytotoxic.”", "conditions": "for Aβ42-lowering activity: summary of Tables 1-3; for inhibitory effects on Aβ40 production / inhibitory effects on Aβ42 production: ginsenosides of unprocessed ginseng, 8 hours, FIG. 10 (50 μM)", "description": "The CHO cells were treated with the indicated compounds (at 50 μg/ml) for 8 hrs. Aβ42 levels in the medium were measured by ELISA and normalized to intracellular full-length APP.\nThe potential effects of ginsenosides and their analogues in treating AD were examined. First, a number of ginsenosides were screened based on their effects on Aβ generation. The effects of various ginsenosides on Aβ (e.g., Aβ40 and Aβ42) production was initially accessed by incubating the Chinese hamster ovary (CHO) cells expressing human APP(CHO-APP cells) with each ginsenoside purified from unprocessed ginseng (known as “white ginseng”). These representative ginsenosides included Rb1, Rb2, Rc, Rd, Re, Re, Rg1 and Rg2 and differ in their side chains and sugar moieties.\nAfter 8 hours of incubation, the media were collected and the levels of secreted Aβ40 and Aβ42 were determined by ELISA."}, "[4]": {"molecular_target": "T3, γ-secretase cleavage of p75 neurotrophin receptor (p75-ICD) (Homo sapiens, UniProt P49768)", "T3 construct": "Membrane fractions isolated from 293 cells overexpressing either APP (A), Notch-AE (B) or p75-AE (C); endogenous in cells; host or cells: 293 cells (membrane fractions); only the substrates APP, Notch-ΔE and p75-ΔE are overexpressed", "experiment": "Cell-free generation of p75-ICD from membrane fractions of 293 cells overexpressing p75-AE", "format": "biochemical", "description": "as §1"}, "[5]": {"test_system": "Aβ40 and Aβ42 generation, Neuro2a-SW cells", "experiment": "Aβ generation in Neuro2a cells expressing human Swedish mutant APP (Neuro2a-SW)", "format": "cell-based, mouse", "conditions": "FIG. 16", "from_the_text": "FIG. 16 depicts the effects of two major metabolites of ginsenosides, including 20(S)-protopanaxatriol (PPT) and 20(S)-protopanaxadiol (PPD) on Aβ42 generation. 20(S)-panaxatriol (PT) and 20(S)-panaxadiol (PD) are the artificial derivatives of PPT and PPPD, respectively.\nGinsenosides are metabolized by human intestinal bacteria after oral administration of ginseng extract (Kobayashi K., et al., Metabolism of ginsenoside by human intestinal bacteria [II] Ginseng Review 1994; 18: 10-14; Hasegawa H., et al., Main ginseng saponin metabolites formed by intestinal bacteria. Planta Med. 1996; 62: 453-457.). Therefore, the effects of two major metabolites of ginsenosides, including 20(S)-protopanaxatriol (PPT) and 20(S)-protopanaxadiol (PPD) on Aβ42 generation were tested. 20(S)-panaxatriol (PT) and 20(S)-panaxadiol (PD) are the artificial derivatives of PPT and PPPD, respectively."}, "[6]": {"test_system": "Aβ40 and Aβ42 production, CHO-APP/PS1 cells", "experiment": "Secreted Aβ ELISA in CHO-APP/PS1 cells (wild-type PS1)", "format": "cell-based, Chinese hamster", "conditions": "50 μM, 8 hrs, FIG. 11", "description": "The effects of Rg5 on the Aβ42 generation were much smaller as compared to Rgk351 and Rk1.\nFIG. 10 depicts the effects of native ginsenosides on Aβ42 production. CHO cells stably transfected with human APP695 together with either wild-type (A, CHO-APP/PS1 cells) or ΔE9 FAD mutant (B, CHO-APP/ΔE9PS1 cells) forms of PS1 were used. Cells were treated with the indicated compounds (at 50 μM) for 8 hrs. Levels of secreted Aβ40 and Aβ42 in the medium were determined by ELISA and normalized to intracellular full-length APP. In CHO-APP/PS1 cells, average Aβ amounts in control samples were 320 pM for Aβ40 and 79 pM for Aβ42. The relative levels of Aβ and Aβ42 were normalized to values obtained from non-treated and vehicle-treated cells and are shown as % to control+s.d.). One of three representative experiments are shown.\nCHO-APP/PS1 (A) and CHO-APP/ΔE9PS1 (B) cells were treated with the indicated compounds at 50 μM for 8 hrs and the levels of secreted Aβ40 and Aβ42 were determined as described in FIG. 1. […] The PS1-ΔE9 FAD mutation diminished the Aβ42 response to Rk1 treatment (B)."}, "[7]": {"conditions": "CHO cells expressing wild-type human APP, PPT/PT"}},
  "note": "Like-named read-outs stand apart in the source and are kept apart here.",
  "data": [
    {"smiles": "CSc1ccc(/C=C2/C(C)=C(CC(=O)O)c3cc(F)ccc32)cc1", "note": "[sulindac sulfide]", "values": [
      {"measurement": "cell-free generation of AICD", "setting": "[1]; listed as SS", "value": "abundantly produced"},
      {"measurement": "cell-free generation of AICD", "setting": "[1]; listed as sulinac sulfide", "value": "did not affect"},
      {"measurement": "cell-free generation of NICD", "setting": "[2]; listed as SS", "value": "abundantly produced"},
      {"measurement": "cell-free generation of NICD", "setting": "[2]; listed as sulinac sulfide", "value": "did not affect"},
      {"measurement": "Aβ42 generation in vitro", "setting": "γ-secretase", "value": "potently inhibited"},
      {"measurement": "Aβ40 production", "setting": "[3]; overnight treatment, FIG. 12B", "value": "slightly affected"},
      {"measurement": "cell-free generation of p75-ICD", "setting": "[4]; listed as SS", "value": "abundantly produced"},
      {"measurement": "cell-free generation of p75-ICD", "setting": "[4]; listed as sulinac sulfide", "value": "did not affect"}
    ]},
    {"smiles": "CC(C)=CCC[C@](C)(O[C@@H]1O[C@H](CO[C@@H]2OC[C@@H](O)[C@H](O)[C@H]2O)[C@@H](O)[C@H](O)[C@H]1O)[C@H]1CC[C@]2(C)[C@@H]1[C@H](O)C[C@@H]1[C@@]3(C)CC[C@H](O[C@@H]4O[C@H](CO)[C@@H](O)[C@H](O)[C@H]4O[C@@H]4O[C@H](CO)[C@@H](O)[C@H](O)[C@H]4O)C(C)(C)[C@@H]3CC[C@]12C", "note": "[Rb3]", "values": [
      {"measurement": "Aβ42-lowering activity", "setting": "[3]", "value": "No"}
    ]},
    {"smiles": "C[C@H](NC(=O)Cc1cc(F)cc(F)c1)C(=O)N[C@H]1N=C(c2ccccc2)c2ccccc2N(C)C1=O", "note": "[Compound E]", "values": [
      {"measurement": "cell-free generation of AICD", "setting": "[1]", "value": "efficiently inhibited"},
      {"measurement": "cell-free generation of AICD", "setting": "[1]; listed as Cpd.E", "value": "Very low amounts"},
      {"measurement": "cell-free generation of NICD", "setting": "[2]", "value": "efficiently inhibited"},
      {"measurement": "cell-free generation of NICD", "setting": "[2]; listed as Cpd.E", "value": "Very low amounts"},
      {"measurement": "cell-free generation of p75-ICD", "setting": "[4]", "value": "efficiently inhibited"},
      {"measurement": "cell-free generation of p75-ICD", "setting": "[4]; listed as Cpd.E", "value": "Very low amounts"}
    ]},
    {"smiles": "CC(C)=CCC[C@](C)(O[C@@H]1O[C@H](CO[C@@H]2OC[C@H](O)[C@H](O)[C@H]2O)[C@@H](O)[C@H](O)[C@H]1O)[C@H]1CC[C@]2(C)[C@@H]1[C@H](O)C[C@@H]1[C@@]3(C)CC[C@H](O[C@@H]4O[C@H](CO)[C@@H](O)[C@H](O)[C@H]4O[C@@H]4O[C@H](CO)[C@@H](O)[C@H](O)[C@H]4O)C(C)(C)[C@@H]3CC[C@]12C", "note": "[Rb2]", "values": [
      {"measurement": "inhibitory effects on Aβ40 production", "setting": "[3]", "value": "None"},
      {"measurement": "inhibitory effects on Aβ42 production", "setting": "[3]", "value": "None"},
      {"measurement": "Aβ42-lowering activity", "setting": "[3]", "value": "No"}
    ]},
    {"smiles": "CC(C)=CCC[C@](C)(O)[C@H]1CC[C@]2(C)[C@@H]1[C@H](O)C[C@@H]1[C@@]3(C)CC[C@H](O)C(C)(C)[C@@H]3[C@@H](O[C@@H]3O[C@H](CO)[C@@H](O)[C@H](O)[C@H]3O[C@@H]3O[C@@H](C)[C@H](O)[C@@H](O)[C@H]3O)C[C@]12C", "note": "[Rg2]", "values": [
      {"measurement": "inhibitory effects on Aβ40 production", "setting": "[3]", "value": "None"},
      {"measurement": "inhibitory effects on Aβ42 production", "setting": "[3]", "value": "None"},
      {"measurement": "Aβ42-lowering activity", "setting": "[3]", "value": "No"}
    ]},
    {"smiles": "CC(C)=CCC[C@](C)(O)[C@H]1CC[C@]2(C)[C@@H]1[C@H](O)C[C@@H]1[C@@]3(C)CC[C@H](O)C(C)(C)[C@@H]3[C@@H](O)C[C@]12C", "note": "[PPT, 20(S)-protopanaxatriol]", "values": [
      {"measurement": "levels of Aβ42", "setting": "[5]; Neuro2a-SW", "value": "without affecting"},
      {"measurement": "production of Aβ42", "setting": "[5]; Neuro2a-SW", "value": "reduced the production of Aβ42"},
      {"measurement": "levels of Aβ42", "setting": "[3]; [7]", "value": "without affecting"},
      {"measurement": "production of Aβ42", "setting": "[3]; [7]", "value": "reduced the production of Aβ42"},
      {"measurement": "Aβ42-lowering activity", "setting": "[3]", "value": "Yes"}
    ]},
    {"smiles": "CC(C)=CCCC(C)(O)C1CCC2(C)C1C(O)CC1C3(C)CCC(OC4OC(CO)C(O)C(O)C4OC4OC(CO)C(O)C(O)C4O)C(C)(C)C3CCC12C", "note": "[(20R)Rg3]", "values": [
      {"measurement": "potency of Aβ42-reducing activity (rank)", "setting": "[6]", "value": "Rk1>/=(20S)Rg3>Rg5>(20R)Rg3"},
      {"measurement": "secretion of Aβ42", "setting": "[6]; heat-processing derived ginsenosides", "value": "not affected"},
      {"measurement": "generation of Aβ42 (Aβ42 levels in the medium, ELISA, normalized to intracellular full-length APP)", "setting": "[3]; 50 μg/ml, 8 hrs, FIG. 4", "value": "reduce the generation of Aβ42"},
      {"measurement": "Aβ42-lowering activity", "setting": "[3]", "value": "Yes"}
    ]},
    {"smiles": "CC1(C)CCC[C@](C)([C@H]2CC[C@]3(C)[C@@H]2[C@H](O)C[C@@H]2[C@@]4(C)CC[C@H](O)C(C)(C)[C@@H]4CC[C@]23C)O1", "note": "[PD, 20(S)-panaxadiol]", "values": [
      {"measurement": "inhibitory effects on Aβ40 generation", "setting": "[5]", "value": "did not confer any inhibitory effects"},
      {"measurement": "inhibitory effects on Aβ42 generation", "setting": "[5]", "value": "did not confer any inhibitory effects"}
    ]}
  ]
}
